For 2 compounds, IC50 results are on record in patent US8466155B2, “Pyrimidines” (Boehringer Ingelheim International GmbH, priority 2009, dated 2013).

This experiment has as its target T1, PTK2 (Homo sapiens, UniProt Q05397).
T1 construct: purchased Invitrogen PV3832
Put plainly: PTK2 enzyme test, Assay 2 (DELFIA, PT66 antibody). The following applies: values marked (*), read-out: PTK2 1 h IC50. The experiment is classed as biochemical. An excerpt:
This test uses active PTK2 enzyme (Invitrogen Code PV3832) and poly-Glu-Tyr (4:1, Sigma P-0275) as the kinase substrate. The kinase activity is detected by means of the phosphorylation of the substrate in a DELFIA™ assay. The phosphorylated substrate is detected with the europium-labelled phosphotyrosine antibody PT66 (Perkin Elmer, No.: AD0040).
In order to determine concentration-activity curves with PTK2-inhibitors the compounds are serially diluted first of all in 100% DMSO and then in kinase dilution buffer (20 mM TRIS/HCl pH 7.5, 0.1 mM EDTA, 0.1 mM EGTA, 0.286 mM sodium orthovanadate, 10% glycerol with the addition of freshly prepared BSA (fraction V, 1 mg/mL) and DTT (1 mM)) and 10 μL of each dilution are dispensed per well in a 96-well microtitre plate (clear U-shaped base plate, Greiner No. 650101) (the inhibitors are tested in duplicates) and mixed with 10 μL/well of PTK2 kinase (0.01 μg/well). PTK2 kinase is diluted accordingly beforehand with kinase dilution buffer. […]
The time-delayed europium fluorescence is then measured in a microtitre plate reader (VICTOR^3, Perkin Elmer). […]
The IC50 values are determined from concentration-activity analyses by iterative calculation using a sigmoid curve analysis algorithm (FIFTY, based on GraphPAD Prism Version 3.03) with a variable Hill coefficient.

pIC50: −log10 of the molar value.

T1 sequence (Q05397 whole entry): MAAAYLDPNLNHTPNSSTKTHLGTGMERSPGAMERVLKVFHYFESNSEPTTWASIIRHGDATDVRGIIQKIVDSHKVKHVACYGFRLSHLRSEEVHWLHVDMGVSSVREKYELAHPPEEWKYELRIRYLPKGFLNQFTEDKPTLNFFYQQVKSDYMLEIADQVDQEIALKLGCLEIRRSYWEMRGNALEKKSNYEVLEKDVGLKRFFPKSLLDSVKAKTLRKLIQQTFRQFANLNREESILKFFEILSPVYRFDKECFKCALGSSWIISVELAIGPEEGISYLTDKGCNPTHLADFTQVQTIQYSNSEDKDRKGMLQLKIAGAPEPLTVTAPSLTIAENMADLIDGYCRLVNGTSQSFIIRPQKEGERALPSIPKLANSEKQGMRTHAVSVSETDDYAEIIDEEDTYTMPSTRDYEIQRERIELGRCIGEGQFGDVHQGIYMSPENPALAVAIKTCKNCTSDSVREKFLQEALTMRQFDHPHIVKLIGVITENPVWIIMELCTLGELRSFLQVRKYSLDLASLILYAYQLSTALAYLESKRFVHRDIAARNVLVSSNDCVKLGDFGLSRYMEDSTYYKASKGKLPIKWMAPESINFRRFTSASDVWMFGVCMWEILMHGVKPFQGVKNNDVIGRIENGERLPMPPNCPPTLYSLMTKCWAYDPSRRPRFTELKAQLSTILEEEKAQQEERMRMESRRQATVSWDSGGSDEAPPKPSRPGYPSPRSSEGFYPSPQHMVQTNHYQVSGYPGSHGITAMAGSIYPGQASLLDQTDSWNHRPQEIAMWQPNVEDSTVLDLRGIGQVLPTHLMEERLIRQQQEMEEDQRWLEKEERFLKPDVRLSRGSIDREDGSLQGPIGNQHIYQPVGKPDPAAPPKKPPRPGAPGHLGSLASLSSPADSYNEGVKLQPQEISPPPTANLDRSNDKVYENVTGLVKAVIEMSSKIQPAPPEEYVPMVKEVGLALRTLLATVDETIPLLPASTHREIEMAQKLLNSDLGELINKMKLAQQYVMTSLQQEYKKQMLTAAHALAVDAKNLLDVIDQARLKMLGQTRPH

Regarding `COc1ccc(C(=O)NC2CCN(C)CC2)cc1Nc1ncc(C(F)(F)F)c(O[C@@H]2Cc3ccccc3[C@H]2N(C)S(C)(=O)=O)n1` [Example 79, 3-{4-[(1R,2R)-1-(methanesulphonyl-methyl-amino)-indan-2-yloxy]-5-trifluoromethyl-pyrimidin-2-ylamino}-4-methoxy-N-(1-methyl-piperidin-4-yl)-benzamide], the pIC50 was 9.40.

As for `COc1cc(N2CCN(C(C)(C)C)CC2)ccc1Nc1ncc(C(F)(F)F)c(O[C@@H]2Cc3ccccc3[C@H]2N(C)S(C)(=O)=O)n1` [Example 90, N-((1R,2R)-2-{2-[4-(4-tert-butyl-piperazin-1-yl)-2-methoxy-phenylamino]-5-trifluoromethyl-pyrimidin-4-yloxy}-indan-1-yl)-N-methyl-methanesulphonamide], the negative-log IC50 (pIC50) was 9.07.
